These results are taken from patent publication US20150175585A1, “FUSED QUINONIC COMPOUNDS” (CENTRO ATLANTICO DEL MEDICAMENTO S.A (CEAMED, S.A.), priority 2012, published 2015).

pIC50: −log10 of the molar value. Read-outs that look alike come from different tables or passages of the source. Some results are limits rather than exact numbers.

In one assay the test system is JAK2. The experiment in a line: JAK2 phosphorylation western blot assay. It is filed as cell-based, human. The settings on record: 10 microM, HEL or K562 cells (table does not say which). The method, then: (§1) The Human Erythroleukemia cell line HEL and the human Chronic Myeloid Leukemia cell line K562 were cultured in RPM I 1640 medium containing 10% fetal bovine serum (FBS) and 50 U/ml penicillin/50 U/ml streptomycin at 37° C. in a 5% CO2 humidified atmosphere to a density of 300.000 viable cells/mL in presence of WP1066 (positive control of phosphorylation inhibition) (Verstovsek et al., 2008) or CM-363 at concentrations of 1, 5 and 10 μM. Cell culture reagents were all obtained from BioWhittaker® (Lonza, Verniers, Belgium). Cell growth and viability was determined by propidium iodide (fluorescent dye) exclusion method using the Accuchip 4× Counting Kit and the ADAM automatic cell counter (Digital-Bio, NanoEntek, Ic., Washington St, Mass., USA).As a control of unspecific phosphorylation, some cells in each experiment were exposed to vehicle (negative control of phosphorylation inhibition) (0.1% DMSO).
(§2) For total protein extraction, cells were scraped with RIPA 1× lysis buffer (25 mM Tris-HCl pH 7.6, 150 mM NaCl, 1% NP-40, 1% sodium deoxycholate, 0.1% SDS, no. 89900, Thermo Scientific, Rockford, Ill., USA) supplemented with 1× protease and 1× phosphatase inhibitor cocktails (100× Halt™ Protease Inhibitor Cocktail, no. 87786 and 100× Halt Phosphatase Inhibitor Cocktail, no. 78420, both from Thermo Scientific, Rockford, Ill., USA). An aliquot of each extract was preserved for protein quantification by bicinchoninic acid assay (Pierce® BCA Protein Assay Kit, no. 23225, Thermo Scientific, Rockford, Ill., USA).
(§3) Proteins were solubilized in sample buffer containing 0.0625 M Tris-HCl, pH 6.8, 2.3% (wt/vol) SDS, 10% (vol/vol) glycerol, 5% (vol/vol) f3-mercaptoethanol, and 0.001% (wt/vol) bromophenol blue and boiled at 95° C. for 5 min. Equal amounts (50 μg) of each sample were electrophoresed on 8-10% sodium dodecyl sulfate-polyacrylamide gel electrophoresis (SDS-PAGE) and transferred to nitrocellulose membranes (iBlot® Gel Transfer Stacks, Nitrocellulose, no. IB4010-02, Invitrogen, Barcelona, Spain) as described previously (Fernandez, L, et al., Endocrinology, 13, 1815-1824, 1998; B. Guerra et al., J. Neurochem, 91, 99-109, 2004; B. Guerra et al., J. Appl. Physiol., 102, 1786-1792, 2007; B. Guerra et al., J. Appl. Physiol., 111, 715-725, 2011). The nitrocellulose membranes were then removed from the iBlot® Dry GelTransfer Device (no. IB1001EU, Invitrogen, Barcelona, Spain) and placed in a Ponceau S staining solution (0.5% Ponceau S and 1% glacial acetic acid in water) to verify equal loading of protein in the control and treated samples. After the membranes were stained for 5 min, they were rinsed for 2 min and examined. Equal loading of protein was verified, and the membranes were rinsed for an additional 10 min and immunoscreened. Membranes were blocked with 5% blotting grade blocker nonfat dry milk in Tris Buffered Saline with 0.05% Tween 20 (TBST; blotto-blocking buffer) for at least […]) at room temperature. They were washed thrice in TBS with 0.1% Tween 20 (TBST-0.1). Next, the membranes were incubated over night at 4° C. with the appropriate anti-phospho-antibodies (described below) all diluted (1:1000) in 1% bovine serum albumin (BSA)-1% blotto in TBST (BSA-blotto blocking buffer). […] Membranes were stripped of bound antibodies by incubation in stripping buffer (Restore™ Western Blot Stripping Buffer, no. 21059, Thermo Scientific, Rockford, Ill., USA) at room temperature for 30 min with agitation. Membranes were washed for 3×10 min in TBST-0.1, blocked with blotto-blocking buffer for at least 1 h and re-probed with the corresponding anti-total kinase antibodies (described below) all diluted (1:1000) in blotto-blocking buffer. […]

In assay [1] the test system is K562 cells. Put plainly: K562-based MTT cell viability assay. More on the design: species or system human. The settings on record: 48 h, read-out: Activity (IC50, reduction of cell viability). The method, then: (§4) Cell viability was assayed by measuring the mitochondrial reduction of the tetrazolium salt 3-(4,5-methyltiazol-2yl)-2,5diphenyl-tetrazolium bromide] (MTT) (Applichen; A2231,0010) (Mosmann T. J Immunol Methods. 1983 16; 65(1-2):55-63; Chuan Y-C et al 2010. Oncogene. 29 (10), 1531-1542. Cells were seeded in 96-well plates in medium supplemented with 10% FBS (Lonza Cat. No: 14-502F), 2 mM L-Glut (Lonza Cat. No: BE17-605E) and 100 U/ml PEST (Lonza Cat. No: DE17-605E) at a cell density of 5000-20000 cells/well. Cells were seeded at a density according to their exponential growth phase. Vehicle (0.05% DMSO) or drug were added to culture medium at the indicated concentrations (10 to 0.01 microM) during 48 h. Then, MTT (0.3 mg/ml) was added to cells following by incubation for 2-4 h at 37° C. in the dark. The medium was then discarded and the formazan precipitate was solubilized by addition of 20% SDS (Sigma; L-5750) in 0.02N HCl (Panreac; 131020.1611) for 12-16 h. The optical density was measured at 595 nm with the iMark Microplate Reader (BioRad, USA). Data was expressed as percent growth above the level in controls and the results in figures were plotted as means±SEM of each test point from 3 replicates.
(§5) Statistical analysis. The concentration of drug that provokes 50% reduction of cell viability (IC50) was determined by using non-linear regression analysis and data were fitted to a log concentration vs normalized response curve in GraphPad software v5 (San Diego, Calif.).

Assay [2] has as its system STAT5 transcription (pSPI-GLE1-luc) in HEK-GHR cells. The experiment in a line: HEK-GHR STAT5 transcription assay (luciferase reporter, rhGH stimulated). It is filed as cell-based, human. As to conditions: compound 45 minutes before 50 nM rhGH, six hours, read-out: Activity (IC50, reduction of luciferase activity). From the text: Plasmids: The full-length GHR was subcloned into pcDNA1/ampicillin (Invitrogen) as described previously (Ross R J, Esposito N, Shen X Y, et al., Mol Endocrinol 1997, 11:265-73). The pSPI-GLE1 (serine protease inhibitor 2.1 GAS-like element 1)-luc reporter construct was generated by subcloning the Stat5-binding element from serine protease inhibitor gene together with a minimal thymidine kinase promoter into the pGL2 plasmid (Promega), which contains the firefly luciferase cDNA (Wood T J, Sliva D, Lobie P E, et al. J Biol Chem 1995, 270:9448-53).
Cell culture: HEK-GHR cell line was maintained in Dulbecco's Modified Eagle Medium (DMEM)/F12 supplemented with 10% fetal bovine serum (FBS) and 50 U/ml penicillin/50 U/ml streptomycin. The cells were maintained in a humidified incubator with 5% CO2 at 37° C. Cell culture reagents were obtained from PAA laboratories. The HEK-GHR cell line is a stable clone generated and kindly donated by Prof. Richard Ross (Clinical Sciences, Northern General Hospital, Sheffield, UK). Briefly, HEK-GHR cell line was generated in HEK 293 cells (human kidney embryonal cell line) by transfection with the calcium phosphate procedure of the GHR plasmid with pcDNA3/Neo (Invitrogen). Selection was made using G418 (400 ug/ml, Sigma) (Maamra M, Finidori J, Von Laue S, et al., J Biol Chem 1999, 274(21):14791-8).
Luciferase reporter assay: Transcription assays were performed in HEK-GHR. The HEK-GHR cells were co-transfected with Stat5 luciferase (pSPI-GLE1-luc) reporter vector together with a plasmid constitutively expressing beta-galactosidase by using Metafectene Pro as described by the manufacturer (Biontex Laboratories GmbH, Munich, Germany). Following transfection, HEK-GHR cells were serum-starved for 20 h. Cells were then treated with vehicle (0.1% DMSO) or the indicated compound for 45 minutes prior to the addition of 50 nM recombinant human Growth Hormone (rhGH) (Norditropin, Novo Nordisk) to the medium. Six hours following rhGH addition, cells were harvested with Passive Lysis Buffer (Promega), and levels of luciferase were measured using Luciferase Assay System as described by the manufacturer (Promega). The Galacto-Light Plus System (Applied Biosystems) was used to measure beta-galactosidase activity.
Statistical analysis. The concentration of drug that provokes 50% reduction of luciferase activity (IC50) was determined by using non-linear regression analysis and data were fitted to a log concentration vs normalized response curve in GraphPad software v5 (San Diego, Calif.).

Assay [3] relates to STAT5. Put plainly: STAT5 phosphorylation western blot assay. As to conditions: 10 microM, HEL or K562 cells (table does not say which). The assay is classed as cell-based, human. The method, then: as §1, §2, §3
Another assay deals with HEL cells. Put plainly: HEL-based MTT cell viability assay. The settings on record: 48 h, read-out: Activity (IC50, reduction of cell viability). More on the design: species or system human. As to the method: as §4, §5
Assay [4] has as its system STAT5. The settings on record: K562 cells, 30-100 μM; cited from earlier work.
Assay [5] relates to K562 cells. As to conditions: cited from earlier work.

For `CC1(C)CC(=O)C2=C(C1)OC1=C(C(=O)c3ccccc3C1=O)C2c1ccc(C#N)cc1` (stereo not drawn) [Compound 3, 4-(3,3-dimethyl-1,6,11-trioxo-2,3,4,6,11,12-hexahydro-1H-benzo[b]xanthen-12-yl)benzonitrile], the “Activity (inhibition of JAK2 phosphorylation)” value with JAK2 is recorded as “++ (++represents an inhibition at 10 microM > 50%)”. Further, the pIC50 (in the assay on K562 cells [1] (Homo sapiens); in assay [2] (Homo sapiens); in the assay on HEL cells (Homo sapiens)) was greater than 6.00 each time. For the same compound, in the assay with STAT5 [3], the “Activity (inhibition of STAT5 phosphorylation)” value is listed as “+++ (+++represents an inhibition at 10 microM > 75%)”.
With `CC1(C)CC(=O)C2=C(C1)NC1=C(C(=O)c3ccncc3C1=O)C2c1ccccc1` (stereo not drawn) [Compound 13], in the assay with JAK2, the “Activity (inhibition of JAK2 phosphorylation)” value is “++ (++represents an inhibition at 10 microM > 50%)”. In addition, the pIC50 is greater than 5.52 in the assay on K562 cells [1], greater than 5.30 in assay [2] and greater than 5.52 in the assay on HEL cells. Moreover, the “Activity (inhibition of STAT5 phosphorylation)” value in the assay on STAT5 [3] is “+++ (+++represents an inhibition at 10 microM > 75%)”.
`COc1cc2ncnc(Nc3ccc(O)cc3)c2cc1OC` [WHI-P131]: the “tyrosine phosphorylation of STAT5” value in the assay on STAT5 [4] was “caused a reduction in tyrosine phosphorylation of STAT5”. In addition, the “cell cycle phases in flow cytometry experiments” value in the assay on K562 cells [5] is “dose-dependent decrease in G1 and S phases and an increase in G2/M phases”.
